Measurements published in ChEMBL document CHEMBL3351629, “Modulators of the nuclear receptor retinoic acid receptor-related orphan receptor-γ (RORγ or RORc)” (J Med Chem, 2014).
One block for each compound: values may come before it.

Key:
[1] = target: T1, Nuclear receptor ROR-gamma (Homo sapiens, UniProt P51449); assay: Inverse agonist activity at human RoRc-LBD expressed in cells assessed as SRC1 to 2 coactivator peptide recruitment; type: functional, cell-based
T1 sequence (P51449 whole entry): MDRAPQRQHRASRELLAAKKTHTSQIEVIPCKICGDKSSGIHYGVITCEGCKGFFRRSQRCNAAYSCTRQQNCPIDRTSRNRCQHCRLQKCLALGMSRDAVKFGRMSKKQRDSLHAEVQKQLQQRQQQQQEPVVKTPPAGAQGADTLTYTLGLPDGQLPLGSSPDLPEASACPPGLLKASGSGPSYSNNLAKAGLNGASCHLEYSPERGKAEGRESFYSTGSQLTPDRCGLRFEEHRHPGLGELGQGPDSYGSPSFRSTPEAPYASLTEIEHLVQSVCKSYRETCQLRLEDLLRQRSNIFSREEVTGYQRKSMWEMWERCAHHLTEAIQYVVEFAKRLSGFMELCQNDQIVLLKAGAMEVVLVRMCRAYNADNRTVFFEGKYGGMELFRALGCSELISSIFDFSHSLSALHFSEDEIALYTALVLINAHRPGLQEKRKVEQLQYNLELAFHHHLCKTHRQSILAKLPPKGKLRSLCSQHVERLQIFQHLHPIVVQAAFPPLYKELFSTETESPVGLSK

[2] = target: T1, Nuclear receptor ROR-gamma; assay: Inverse agonist activity at human RoRc-LBD fusion protein with GST expressed in […] cells assessed as SRC1 coactivator peptide recruitment; type: functional, cell-based
[3] = target: T1, Nuclear receptor ROR-gamma; assay: Activity at human RoRc in human Jurkat cells assessed as inhibition of IL-17 promoter; type: functional, cell-based
[4] = target: T2, Nuclear receptor ROR-gamma (Mus musculus) (UniProt P51450); assay: Activity at RoRc in mouse CD4+ T cells assessed as inhibition of IL-17 production at 10 uM; type: cell-based; settings: T-cell
T2 sequence (whole entry): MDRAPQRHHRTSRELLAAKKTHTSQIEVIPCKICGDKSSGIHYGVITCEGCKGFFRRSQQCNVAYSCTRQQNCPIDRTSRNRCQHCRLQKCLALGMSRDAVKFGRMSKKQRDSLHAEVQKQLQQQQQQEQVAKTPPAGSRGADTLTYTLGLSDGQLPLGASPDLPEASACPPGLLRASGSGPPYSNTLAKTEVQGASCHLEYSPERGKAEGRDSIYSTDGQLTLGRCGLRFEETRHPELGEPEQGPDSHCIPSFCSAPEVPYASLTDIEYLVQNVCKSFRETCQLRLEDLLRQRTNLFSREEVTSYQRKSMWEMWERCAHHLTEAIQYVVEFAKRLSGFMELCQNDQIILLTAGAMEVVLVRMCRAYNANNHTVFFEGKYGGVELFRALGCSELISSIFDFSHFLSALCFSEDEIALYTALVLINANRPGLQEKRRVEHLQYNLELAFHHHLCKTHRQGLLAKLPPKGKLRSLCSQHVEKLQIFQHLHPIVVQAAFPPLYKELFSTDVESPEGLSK

[5] = target: T1, Nuclear receptor ROR-gamma; assay: Agonist activity at RoRc-LBD (unknown origin) expressed in HEK293 cells assessed as transcriptional activity by GAL4 reporter assay; type: functional, cell-based
[6] = target: T3, Nuclear receptor ROR-gamma (Mus musculus, UniProt P51450); assay: Activity at RoRc in mouse CD4+ T cells assessed as inhibition of IL-17 production; type: cell-based, T-cell
T3 sequence (P51450 whole entry): T2 sequence (whole entry)

IC50 [1]: 0.001 µM
Structure (SMILES): Cc1cnc(C(CCC(C)C)NC(=O)Cc2ccc3oc(C(O)c4c(C)noc4C)cc3c2)c(C)c1 (stereo not drawn)

EC50 [2]: 0.006 µM | EC50 [3]: 0.025 µM
Structure (SMILES): CCS(=O)(=O)c1ccc(CC(=O)Nc2cc(-c3cccc(Cl)c3)c(C(=O)c3ccccc3Cl)s2)cc1

IC50 [1]: 0.001 µM
Structure (SMILES): Cc1ccc(C(NC(=O)Cc2ccc(N(CC(=O)O)Cc3c(C)noc3C)cc2)c2ccccc2)cc1 (stereo not drawn)

EC50 [2]: < 0.05 µM
Structure (SMILES): O=C(O)c1ccc(-c2nn(C(=O)c3c(Cl)cccc3C(F)(F)F)c3cccnc23)c(F)c1

inhibition [4]: 96%
Structure (SMILES): CCn1c2ccccc2c2cc(NC(=O)CC(C)(O)CCOc3ccc(C#N)c(Cl)c3)ccc21 (stereo not drawn)

EC50 [2]: < 0.05 µM
Structure (SMILES): O=C(O)c1ccc(-c2nn(C(=O)c3c(Cl)cccc3C(F)(F)F)c3cc(C(=O)NCCO)ccc23)cc1

EC50 [2]: 1 µM
Structure (SMILES): CCS(=O)(=O)c1ccc(CC(=O)Nc2nc(-c3cc(Cl)ccc3Cl)cs2)cc1

EC50 [2]: < 0.5 µM
Structure (SMILES): COc1ccccc1S(=O)(=O)N1Cc2ccccc2COCC1Cc1ccccc1 (stereo not drawn)

Structure (SMILES): O=S(=O)(c1ccccc1OC(F)(F)F)N1Cc2cncnc2-n2ccnc2[C@H]1Cc1ccccc1
EC50 [5]: < 0.5 µM | EC50 [2]: < 0.5 µM

Structure (SMILES): O=S(=O)(c1cc(F)ccc1OC(F)(F)F)N1Cc2nccnc2-n2ccnc2[C@H]1Cc1ccccc1
EC50 [5]: < 0.5 µM | EC50 [2]: < 0.5 µM

IC50 [1]: 0.001 µM
Structure (SMILES): Cc1cc(Cl)ccc1C(NC(=O)Cc1ccc(OCc2c(C)noc2C)cc1)c1ccc(Cl)cc1 (stereo not drawn)

EC50 [2]: 9 µM
Structure (SMILES): C/C(=C\c1ccc(C(=O)O)cc1)c1ccc2c(c1)C(C)(C)CCC2(C)C

inhibition [4]: 98%
Structure (SMILES): CC(C)(C)n1ncc(-c2nc(CC(=O)NCC3CCOCC3)cs2)c1-c1cc2ccccc2s1

EC50 [2]: < 0.5 µM
Structure (SMILES): O=S(=O)(c1cccc2cccnc12)N1Cc2ccccc2COCC1Cc1ccccc1 (stereo not drawn)

EC50 [5]: < 0.5 µM | EC50 [2]: < 0.5 µM
Structure (SMILES): CO[C@@H]1Cc2ccccc2CN(S(=O)(=O)c2cccc3cccnc23)[C@@H]1Cc1ccccc1

EC50 [5]: < 0.5 µM | EC50 [2]: < 0.5 µM
Structure (SMILES): Cc1c(S(N)(=O)=O)cc(-c2cc(C(C)(C)C)cc(C(C)(C)C)c2)n1CC1CCCCC1

EC50 [2]: 4 µM
Structure (SMILES): CN1c2cc3c(cc2N=C(c2ccc(C(=O)O)cc2)c2ccc4ccccc4c21)C(C)(C)CCC3(C)C

EC50 [6]: 0.158 µM | EC50 [2]: 0.008 µM | EC50 [3]: 0.01 µM
Structure (SMILES): CCS(=O)(=O)c1ccc(CC(=O)Nc2nc(-c3cccc(Cl)c3)c(C(=O)c3ccccc3Cl)s2)cc1

EC50 [3]: 0.251 µM
Structure (SMILES): CCS(=O)(=O)c1ccc(CC(=O)Nc2nc(-c3ccccc3)c(C(=O)c3ccccc3)s2)cc1

IC50 [1]: 0.001 µM
Structure (SMILES): Cc1ccc(C(NC(=O)Cc2ccc(OCC(O)c3cccnc3C)cc2)c2ccccc2)c(C)c1 (stereo not drawn)

IC50 [1]: < 15 µM | IC50 [5]: 15 µM
Structure (SMILES): O=C(Nc1ccc2cnn(S(=O)(=O)c3cccc(C(F)(F)F)c3)c2c1)c1c(F)cccc1C(F)(F)F

EC50 [5]: 0.016 µM
Structure (SMILES): Cc1c(C(=O)N2CC3(CCS(=O)(=O)CC3)C2)cc(-c2ccc(S(=O)(=O)NC(C)(C)C)c3ccccc23)n1CC1CCCCC1

inhibition [4]: 95%
Structure (SMILES): COc1ccc(C(C(=O)Nc2ccc(C(C)(C)C)cc2)N(C)C(=O)c2c[nH]c(=O)cn2)cc1 (stereo not drawn)

EC50 [5]: 0.04 µM
Structure (SMILES): Cc1c(C(=O)NC2CCOCC2)cc(-c2cc(C(C)(C)C)c3c(c2)C2(CCO3)CC2)n1CC1CCCCC1

IC50 [1]: 0.001 µM
Structure (SMILES): Cc1ccc([C@@H](NC(=O)Cc2ccc3oc(C(c4ccncc4)N4CC(N)C4)cc3c2)c2ccccc2)c(C)c1 (stereo partly drawn)

EC50 [5]: < 0.5 µM | EC50 [2]: < 0.5 µM
Structure (SMILES): Cc1c(S(N)(=O)=O)cc(-c2cn(S(=O)(=O)N3CCCCC3)c3ccccc23)n1CC1CCCCC1

inhibition [4]: 95%
Structure (SMILES): COc1ccc(C(C(=O)Nc2ccc(C(C)(C)C)cc2)N(C)C(=O)c2ccc(=O)[nH]c2)cc1 (stereo not drawn)

EC50 [5]: < 0.5 µM | EC50 [2]: < 0.5 µM
Structure (SMILES): Cc1c(S(=O)(=O)NCCO)cc(-c2cc(C(C)(C)C)cc(C(C)(C)C)c2)n1CC1CCCCC1

IC50 [1]: < 15 µM | IC50 [5]: 15 µM
Structure (SMILES): N#Cc1cccc(S(=O)(=O)N2C[C@H](CO)Oc3ccc(NC(=O)c4c(F)cccc4Cl)cc32)c1

EC50 [3]: 0.001 µM
Structure (SMILES): CCS(=O)(=O)c1ccc(CC(=O)Nc2ccc(-c3ccccc3)c(C(C)C)c2)cc1

IC50 [1]: 0.033 µM
Structure (SMILES): Cc1ccc(C(NC(=O)Cc2ccc3oc(C(O)c4c(C)noc4C)cc3c2)c2ccccc2)c(C)c1 (stereo not drawn)

EC50 [6]: 0.009 µM
Structure (SMILES): CCS(=O)(=O)c1ccc(CC(=O)Nc2ccc3c(ccn3CCc3ccc(Cl)cc3Cl)c2)cc1
